Data published in patent US9593156B2 (priority 2012, dated 2017).
Where “and” joins values, the source holds several entries; their conditions need not be identical. Equal entries are not always repeated. Where two headings read alike, the source gives them in different places.

Assays:
insulin receptor [1] = target: T1, insulin receptor (Homo sapiens, UniProt P06213); test: Insulin receptor phosphorylation assay in receptor transfected HEK293 cells; assay type: cell-based; parameters: expressed in transfected cells; host or cells: HEK293
T1 sequence (P06213 28-758 limits assumed): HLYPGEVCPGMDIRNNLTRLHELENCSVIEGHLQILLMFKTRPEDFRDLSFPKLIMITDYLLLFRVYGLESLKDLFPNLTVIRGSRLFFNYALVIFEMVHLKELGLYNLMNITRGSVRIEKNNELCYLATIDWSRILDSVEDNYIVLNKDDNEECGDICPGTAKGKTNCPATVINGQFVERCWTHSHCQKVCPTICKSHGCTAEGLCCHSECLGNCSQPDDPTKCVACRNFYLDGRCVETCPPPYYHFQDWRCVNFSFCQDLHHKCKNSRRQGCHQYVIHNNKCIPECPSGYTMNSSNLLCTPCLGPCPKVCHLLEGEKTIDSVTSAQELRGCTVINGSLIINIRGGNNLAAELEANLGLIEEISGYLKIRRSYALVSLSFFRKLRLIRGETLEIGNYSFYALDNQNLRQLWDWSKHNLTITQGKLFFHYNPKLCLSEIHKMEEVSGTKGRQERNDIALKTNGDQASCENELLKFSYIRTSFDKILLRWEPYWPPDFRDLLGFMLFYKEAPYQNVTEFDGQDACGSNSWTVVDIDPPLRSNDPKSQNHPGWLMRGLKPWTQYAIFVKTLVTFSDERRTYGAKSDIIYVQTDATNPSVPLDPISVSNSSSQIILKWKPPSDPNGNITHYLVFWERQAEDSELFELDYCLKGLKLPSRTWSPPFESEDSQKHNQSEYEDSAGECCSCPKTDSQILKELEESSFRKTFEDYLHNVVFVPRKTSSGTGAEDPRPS
T1 sequence (P06213 763-1382 partner limits assumed): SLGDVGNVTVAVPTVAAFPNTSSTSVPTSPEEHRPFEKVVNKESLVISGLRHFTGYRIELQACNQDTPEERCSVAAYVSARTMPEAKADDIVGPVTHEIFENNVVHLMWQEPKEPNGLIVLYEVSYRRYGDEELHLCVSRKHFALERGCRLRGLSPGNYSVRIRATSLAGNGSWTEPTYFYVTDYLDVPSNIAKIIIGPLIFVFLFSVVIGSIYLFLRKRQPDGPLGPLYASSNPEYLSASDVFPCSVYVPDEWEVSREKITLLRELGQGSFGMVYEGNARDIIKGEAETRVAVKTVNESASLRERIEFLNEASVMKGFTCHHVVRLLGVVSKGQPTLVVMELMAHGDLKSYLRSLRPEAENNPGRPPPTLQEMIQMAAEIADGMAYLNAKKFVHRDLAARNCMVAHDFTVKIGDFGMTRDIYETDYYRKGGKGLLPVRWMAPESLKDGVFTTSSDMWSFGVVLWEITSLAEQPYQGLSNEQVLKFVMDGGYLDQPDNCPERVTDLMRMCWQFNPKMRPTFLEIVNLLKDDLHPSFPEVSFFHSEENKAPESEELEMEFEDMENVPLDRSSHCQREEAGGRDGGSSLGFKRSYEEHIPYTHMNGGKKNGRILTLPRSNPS

insulin receptor [2] = target: T1, insulin receptor; test: Insulin receptor competition binding assay (scintillation proximity); parameters: expressed in transfected cells; plasma membrane fragments
IGF-1 receptor [3] = target: T2, IGF-1 receptor (Homo sapiens, UniProt P08069); test: IGF-1 receptor phosphorylation assay in receptor transfected HEK293 cells; assay type: cell-based; parameters: expressed in transfected cells; host or cells: HEK293
T2 sequence (P08069 31-736 limits assumed): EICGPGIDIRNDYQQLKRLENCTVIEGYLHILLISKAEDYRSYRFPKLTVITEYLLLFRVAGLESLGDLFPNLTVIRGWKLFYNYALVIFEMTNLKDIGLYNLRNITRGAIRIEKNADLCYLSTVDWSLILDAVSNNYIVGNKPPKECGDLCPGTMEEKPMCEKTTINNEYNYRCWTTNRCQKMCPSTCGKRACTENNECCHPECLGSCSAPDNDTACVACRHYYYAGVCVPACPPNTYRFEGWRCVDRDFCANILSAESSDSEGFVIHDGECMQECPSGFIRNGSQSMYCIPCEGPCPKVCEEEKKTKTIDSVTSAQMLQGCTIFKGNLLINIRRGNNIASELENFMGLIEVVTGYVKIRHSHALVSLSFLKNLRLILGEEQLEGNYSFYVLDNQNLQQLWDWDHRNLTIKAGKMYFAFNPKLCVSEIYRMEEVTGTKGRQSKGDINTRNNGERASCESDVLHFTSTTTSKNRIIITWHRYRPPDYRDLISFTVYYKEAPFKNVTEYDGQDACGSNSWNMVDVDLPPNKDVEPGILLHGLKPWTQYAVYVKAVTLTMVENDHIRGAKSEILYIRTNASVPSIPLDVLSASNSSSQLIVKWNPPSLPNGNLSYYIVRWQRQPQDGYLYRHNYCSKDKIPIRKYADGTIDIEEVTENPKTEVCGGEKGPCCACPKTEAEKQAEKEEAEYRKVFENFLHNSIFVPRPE
T2 sequence (P08069 741-1367 partner limits assumed): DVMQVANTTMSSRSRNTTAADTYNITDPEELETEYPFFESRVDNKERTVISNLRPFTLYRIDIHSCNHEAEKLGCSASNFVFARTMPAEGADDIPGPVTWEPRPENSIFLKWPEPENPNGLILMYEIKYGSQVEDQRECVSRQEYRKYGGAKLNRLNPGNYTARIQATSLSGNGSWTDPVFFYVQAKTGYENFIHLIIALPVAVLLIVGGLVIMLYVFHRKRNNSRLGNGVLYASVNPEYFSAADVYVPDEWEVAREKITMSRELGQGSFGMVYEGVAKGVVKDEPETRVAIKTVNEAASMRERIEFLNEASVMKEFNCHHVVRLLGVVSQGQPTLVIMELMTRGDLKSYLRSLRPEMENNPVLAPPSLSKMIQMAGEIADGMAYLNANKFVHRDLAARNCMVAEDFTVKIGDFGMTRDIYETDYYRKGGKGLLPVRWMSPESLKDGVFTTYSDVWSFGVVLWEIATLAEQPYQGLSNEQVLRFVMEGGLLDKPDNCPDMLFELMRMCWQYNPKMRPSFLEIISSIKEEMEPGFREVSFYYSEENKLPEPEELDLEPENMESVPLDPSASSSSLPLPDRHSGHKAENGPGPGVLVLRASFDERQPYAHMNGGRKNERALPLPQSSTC

IGF-1 receptor [4] = target: T2, IGF-1 receptor; test: IGF-1 receptor competition binding assay (scintillation proximity); parameters: expressed in transfected cells; plasma membrane fragments
[5] = Table 9, IGF-1 receptor versus insulin receptor

Row | % insulin (in test) (insulin receptor [2]; Table 9, Insulin Receptor) | % IGF (IGF-1 receptor [3]; Table 10, IGF-1 Receptor) [%] | % IGF-1 (in test) (IGF-1 receptor [4]; Table 9, IGF-1 Receptor) | Ratio (IGF-1 receptor [4]; [5]) | % Insulin (insulin receptor [1]; Table 10, Insulin Receptor) | Structure (SMILES) | % native insulin activity (0.6 nM) (insulin receptor [2]; Table 9, Insulin Receptor) | further results
1 |  |  |  |  |  | CC[C@H](C)[C@H](NC(=O)CN)C(=O)N[C@H](C(=O)N[C@@H](CC(=O)O)C(=O)N[C@@H](CCC(=O)O)C(=O)N[C@H]1CSSC[C@@H]2NC(=O)[C@H](CO)NC(=O)[C@H](C)NC(=O)[C@H](Cc3c[nH]cn3)NC(=O)[C@H](CSSC[C@H](NC(=O)[C@H](CC(C)C)NC(=O)[C@H](Cc3c[nH]cn3)NC(=O)[C@H](CCC(=O)O)NC(=O)[C@@H]3CCCN3C(=O)CN)C(=O)NCC(=O)N[C@@H](C)C(=O)N[C@@H](CC(=O)O)C(=O)N[C@@H](CC(C)C)C(=O)N[C@@H](C(C)C)C(=O)N[C@@H](CC(=O)O)C(=O)N[C@@H](C)C(=O)N[C@@H](CC(C)C)C(=O)N[C@@H](Cc3ccc(O)cc3)C(=O)N[C@@H](CC(C)C)C(=O)N[C@@H](C(C)C)C(=O)N[C@H](C(=O)NCC(=O)N[C@@H](CC(=O)O)C(=O)N[C@@H](C)C(=O)NCC(=O)N[C@@H](Cc3ccccc3)C(=O)N[C@@H](Cc3ccc(O)cc3)C(N)=O)CSSC[C@@H](C(=O)N[C@@H](CC(N)=O)C(=O)O)NC(=O)[C@H](Cc3ccc(O)cc3)NC(=O)[C@H](CCSC)NC(=O)[C@H](CCC(=O)O)NC(=O)[C@H](CC(C)C)NC(=O)[C@H](CCCNC(=N)N)NC(=O)[C@H](CCCNC(=N)N)NC(=O)[C@H](CC(C)C)NC(=O)[C@H](CC(=O)O)NC2=O)NC1=O)C(C)C |  | % Insulin (insulin receptor [1]): 360% and 614%; % insulin (in test) (insulin receptor [2]): 1171.4%; % IGF (IGF-1 receptor [3]): 7.7%; Selective Ratio (IGF-1 receptor [3]): 32.54; % IGF-1 (in test) (IGF-1 receptor [4]): 2.3%; Ratio (IGF-1 receptor [4]): 190.3
2 | 1576.7% and 1667.0% | 181.395 | 12.9% | 80.6 |  | CC[C@H](C)[C@H](NC(=O)CN)C(=O)N[C@H](C(=O)N[C@@H](CC(=O)O)C(=O)N[C@@H](CCC(=O)O)C(=O)N[C@H]1CSSC[C@@H]2NC(=O)[C@H](CO)NC(=O)[C@H](C)NC(=O)[C@H](Cc3c[nH]cn3)NC(=O)[C@H](CSSC[C@H](NC(=O)[C@H](CC(C)C)NC(=O)[C@H](Cc3c[nH]cn3)NC(=O)[C@H](CCC(=O)O)NC(=O)[C@@H]3CCCN3C(=O)CN)C(=O)NCC(=O)N[C@@H](C)C(=O)N[C@@H](CC(=O)O)C(=O)N[C@@H](CC(C)C)C(=O)N[C@@H](C(C)C)C(=O)N[C@@H](CC(=O)O)C(=O)N[C@@H](C)C(=O)N[C@@H](CC(C)C)C(=O)N[C@@H](Cc3ccc(O)cc3)C(=O)N[C@@H](CC(C)C)C(=O)N[C@@H](C(C)C)C(=O)N[C@H](C(=O)NCC(=O)N[C@@H](CC(=O)O)C(=O)N[C@@H](CCCNC(=N)N)C(=O)NCC(=O)N[C@@H](Cc3ccccc3)C(=O)N[C@@H](Cc3ccc(O)cc3)C(N)=O)CSSC[C@@H](C(=O)N[C@@H](CC(N)=O)C(=O)O)NC(=O)[C@H](Cc3ccc(O)cc3)NC(=O)[C@H](CCSC)NC(=O)[C@H](CCC(=O)O)NC(=O)[C@H](CC(C)C)NC(=O)[C@H](CCCNC(=N)N)NC(=O)[C@H](CCCNC(=N)N)NC(=O)[C@H](CC(C)C)NC(=O)[C@H](CC(=O)O)NC2=O)NC1=O)C(C)C |  | % Insulin (insulin receptor [1]; Table 10, Insulin Receptor, listed as IGF-1 A (H8 A9 N21) B(H5D10Y16L17) DPI A-COOH): 840% and 1080%
3 | 479.0% | 7.1 | 11.2% | 29.1 |  | CC[C@H](C)[C@H](NC(=O)CN)C(=O)N[C@H](C(=O)N[C@@H](CC(=O)O)C(=O)N[C@@H](CCC(=O)O)C(=O)N[C@H]1CSSC[C@@H]2NC(=O)[C@H](CO)NC(=O)[C@H](CCCNC(=N)N)NC(=O)[C@H](Cc3ccccc3)NC(=O)[C@H](CSSC[C@H](NC(=O)[C@H](CC(C)C)NC(=O)[C@H](Cc3c[nH]cn3)NC(=O)[C@H](CCC(=O)O)NC(=O)[C@@H]3CCCN3C(=O)CN)C(=O)NCC(=O)N[C@@H](C)C(=O)N[C@@H](CC(=O)O)C(=O)N[C@@H](CC(C)C)C(=O)N[C@@H](C(C)C)C(=O)N[C@@H](CC(=O)O)C(=O)N[C@@H](C)C(=O)N[C@@H](CC(C)C)C(=O)N[C@@H](Cc3ccc(O)cc3)C(=O)N[C@@H](CC(C)C)C(=O)N[C@@H](C(C)C)C(=O)N[C@H](C(=O)NCC(=O)N[C@@H](CC(=O)O)C(=O)N[C@@H](CCCNC(=N)N)C(=O)NCC(=O)N[C@@H](Cc3ccccc3)C(=O)N[C@@H](Cc3ccc(O)cc3)C(N)=O)CSSC[C@@H](C(=O)N[C@@H](C)C(N)=O)NC(=O)[C@H](Cc3ccc(O)cc3)NC(=O)[C@H](CCSC)NC(=O)[C@H](CCC(=O)O)NC(=O)[C@H](CC(C)C)NC(=O)[C@H](CCCNC(=N)N)NC(=O)[C@H](CCCNC(=N)N)NC(=O)[C@H](CC(C)C)NC(=O)[C@H](CC(=O)O)NC2=O)NC1=O)C(C)C [IGF-1 A:B (H5D10Y16L17) DPI] |  | 
4 |  | 111.538 | 7.7% |  | 1575% | CC[C@H](C)[C@H](NC(=O)CN)C(=O)N[C@H](C(=O)N[C@@H](CC(=O)O)C(=O)N[C@@H](CCC(=O)O)C(=O)N[C@H]1CSSC[C@@H]2NC(=O)[C@H](CO)NC(=O)[C@H](CCCNC(=N)N)NC(=O)[C@H](Cc3ccccc3)NC(=O)[C@H](CSSC[C@H](NC(=O)[C@H](CC(C)C)NC(=O)[C@@H](NC(=O)[C@H](CCC(=O)O)NC(=O)[C@@H]3CCCN3C(=O)CN)[C@@H](C)O)C(=O)NCC(=O)N[C@@H](C)C(=O)N[C@@H](CC(=O)O)C(=O)N[C@@H](CC(C)C)C(=O)N[C@@H](C(C)C)C(=O)N[C@@H](CC(=O)O)C(=O)N[C@@H](C)C(=O)N[C@@H](CC(C)C)C(=O)N[C@@H](Cc3ccc(O)cc3)C(=O)N[C@@H](CC(C)C)C(=O)N[C@@H](C(C)C)C(=O)N[C@H](C(=O)NCC(=O)N[C@@H](CC(=O)O)C(=O)N[C@@H](CCCNC(=N)N)C(=O)NCC(=O)N[C@@H](Cc3ccccc3)C(=O)N[C@@H](Cc3ccc(O)cc3)C(N)=O)CSSC[C@@H](C(=O)N[C@@H](C)C(=O)O)NC(=O)[C@H](Cc3ccc(O)cc3)NC(=O)[C@H](CCSC)NC(=O)[C@H](CCC(=O)O)NC(=O)[C@H](CC(C)C)NC(=O)[C@H](CCCNC(=N)N)NC(=O)[C@H](CCCNC(=N)N)NC(=O)[C@H](CC(C)C)NC(=O)[C@H](CC(=O)O)NC2=O)NC1=O)C(C)C [IGF-1 A:B(D10Y16L17) DPI A-COOH] |  | 
5 | 36.5% |  | 3.0% | 14.3 | 18.1% and 31.7% | CC[C@H](C)[C@H](NC(=O)CN)C(=O)N[C@H](C(=O)N[C@@H](CC(=O)O)C(=O)N[C@@H](CCC(=O)O)C(=O)N[C@H]1CSSC[C@@H]2NC(=O)[C@H](CO)NC(=O)[C@H](CCCNC(=N)N)NC(=O)[C@H](Cc3ccccc3)NC(=O)[C@H](CSSC[C@H](NC(=O)[C@H](CC(C)C)NC(=O)[C@@H](NC(=O)[C@H](CCC(=O)O)NC(=O)[C@@H]3CCCN3C(=O)CN)[C@@H](C)O)C(=O)NCC(=O)N[C@@H](C)C(=O)N[C@@H](CCC(=O)O)C(=O)N[C@@H](CC(C)C)C(=O)N[C@@H](C(C)C)C(=O)N[C@@H](CC(=O)O)C(=O)N[C@@H](C)C(=O)N[C@@H](CC(C)C)C(=O)N[C@@H](Cc3ccc(O)cc3)C(=O)N[C@@H](CC(C)C)C(=O)N[C@@H](C(C)C)C(=O)N[C@H](C(=O)NCC(=O)N[C@@H](CC(=O)O)C(=O)N[C@@H](CCCNC(=N)N)C(=O)NCC(=O)N[C@@H](Cc3ccccc3)C(=O)N[C@@H](Cc3ccc(O)cc3)C(=O)N[C@@H](Cc3ccccc3)C(=O)N[C@@H](CC(N)=O)C(=O)N[C@@H](CCCCN)C(=O)N3CCC[C@H]3C(=O)N[C@H](C(=O)N[C@@H](CCC(=O)O)C(=O)N[C@@H](CCC(=O)O)C(=O)O)[C@@H](C)O)CSSC[C@@H](C(=O)N[C@@H](C)C(N)=O)NC(=O)[C@H](Cc3ccc(O)cc3)NC(=O)[C@H](CCSC)NC(=O)[C@H](CCC(=O)O)NC(=O)[C@H](CC(C)C)NC(=O)[C@H](CCCNC(=N)N)NC(=O)[C@H](CCCNC(=N)N)NC(=O)[C@H](CC(C)C)NC(=O)[C@H](CC(=O)O)NC2=O)NC1=O)C(C)C [IGF-1 A:B(E10 Y16L17)-E31E3 2B-COOH] | 50.0% | 

Row | Structure (SMILES) | % insulin (in test) (insulin receptor [2]; Table 9, Insulin Receptor) | % IGF (IGF-1 receptor [3]; Table 10, IGF-1 Receptor) [%] | % IGF-1 (in test) (IGF-1 receptor [4]; Table 9, IGF-1 Receptor) | Ratio (IGF-1 receptor [4]; [5]) | % Insulin (insulin receptor [1]; Table 10, Insulin Receptor) | % native insulin activity (0.6 nM) (insulin receptor [2]; Table 9, Insulin Receptor) | further results
6 | CC[C@H](C)[C@H](NC(=O)CN)C(=O)N[C@H](C(=O)N[C@@H](CC(=O)O)C(=O)N[C@@H](CCC(=O)O)C(=O)N[C@H]1CSSC[C@@H]2NC(=O)[C@H](CO)NC(=O)[C@H](CCCNC(=N)N)NC(=O)[C@H](Cc3ccccc3)NC(=O)[C@H](CSSC[C@H](NC(=O)[C@H](CC(C)C)NC(=O)[C@@H](NC(=O)[C@H](CCC(=O)O)NC(=O)[C@@H]3CCCN3C(=O)CN)[C@@H](C)O)C(=O)NCC(=O)N[C@@H](C)C(=O)N[C@@H](CCC(=O)O)C(=O)N[C@@H](CC(C)C)C(=O)N[C@@H](C(C)C)C(=O)N[C@@H](CC(=O)O)C(=O)N[C@@H](C)C(=O)N[C@@H](CC(C)C)C(=O)N[C@@H](Cc3ccc(O)cc3)C(=O)N[C@@H](CC(C)C)C(=O)N[C@@H](C(C)C)C(=O)N[C@H](C(=O)NCC(=O)N[C@@H](CC(=O)O)C(=O)N[C@@H](CCCNC(=N)N)C(=O)NCC(=O)N[C@@H](Cc3ccccc3)C(=O)N[C@@H](Cc3ccc(O)cc3)C(=O)N[C@@H](Cc3ccccc3)C(=O)N[C@@H](CC(N)=O)C(=O)N[C@@H](CCCCN)C(=O)N3CCC[C@H]3C(=O)N[C@H](C(N)=O)[C@@H](C)O)CSSC[C@@H](C(=O)N[C@@H](C)C(N)=O)NC(=O)[C@H](Cc3ccc(O)cc3)NC(=O)[C@H](CCSC)NC(=O)[C@H](CCC(=O)O)NC(=O)[C@H](CC(C)C)NC(=O)[C@H](CCCNC(=N)N)NC(=O)[C@H](CCCNC(=N)N)NC(=O)[C@H](CC(C)C)NC(=O)[C@H](CC(=O)O)NC2=O)NC1=O)C(C)C [IGF-1 A:B(E10Y16L17)] | 58.7% and 98.8% | 13 | 6.8% and 5.0% | 11.9 | 49.2% | 90.9% and 117.6% | IC50 (insulin receptor [2]; IC50:): 0.51 nM; IC80 (IGF-1 receptor [4]; Table 9, IGF-1 Receptor): 12.2 nM
